According to PubChem BioAssay AID248 (DTP/NCI, 2004):
Where “and” joins values, the source holds several entries; their conditions need not be identical. Equal values may be shown once. Toxic doses and inconclusive results are not listed. Cut-off read from the data, not from the text of the source: active = T/C of 150% or more; inactive = T/C below 125%.

Tested on: L1210 leukemia ip in BDF1 mice, survival T/C
Assay: NCI In Vivo Anticancer Drug Screen. Data for tumor model L1210 Leukemia (intraperitoneal) in B6D2F1 (BDF1) mice
Conditions: endpoint: mean survival time, higher = longer survival
Outline: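 Read-out is survival time, reported as the treated-group measurement over the vehicle-control measurement.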

[1] = dose: 100.0 mg/kg/injection, schedule: Q01DX009 (ip), vehicle: Klucel (hydroxypropylcellulose) (HPC)
[2] = dose: 100.0 mg/kg/injection, schedule: Q04DX003 (ip), vehicle: Klucel (hydroxypropylcellulose) (HPC)
[3] = dose: 200.0 mg/kg/injection, schedule: Q01DX009 (ip), vehicle: Klucel (hydroxypropylcellulose) (HPC)
[4] = dose: 200.0 mg/kg/injection, schedule: Q04DX003 (ip), vehicle: Klucel (hydroxypropylcellulose) (HPC)
[5] = dose: 400.0 mg/kg/injection, schedule: Q01DX009 (ip), vehicle: Klucel (hydroxypropylcellulose) (HPC)
[6] = dose: 400.0 mg/kg/injection, schedule: Q04DX003 (ip), vehicle: Klucel (hydroxypropylcellulose) (HPC)
[7] = dose: 6.25 mg/kg/injection, schedule: Q01DX009 (ip), vehicle: saline
[8] = dose: 12.5 mg/kg/injection, schedule: Q01DX009 (ip), vehicle: saline
[9] = dose: 25.0 mg/kg/injection, schedule: Q01DX009 (ip), vehicle: saline
[10] = dose: 100.0 mg/kg/injection, schedule: Q04DX003 (ip), vehicle: saline
[11] = dose: 200.0 mg/kg/injection, schedule: Q04DX003 (ip), vehicle: saline
[12] = dose: 400.0 mg/kg/injection, schedule: Q04DX003 (ip), vehicle: saline

Measured: T/C

CN1CC(=O)N2c3ccccc3CC2C1=O (stereo unspecified)
inactive: dose: 100.0 mg/kg/injection, schedule: Q04DX002 (ip), vehicle: saline with Tween-80 102 % of control | dose: 200.0 mg/kg/injection, schedule: Q04DX002 (ip), vehicle: saline with Tween-80 113 % of control | dose: 400.0 mg/kg/injection, schedule: Q04DX002 (ip), vehicle: saline with Tween-80 102 % of control

CN(C)C(=O)c1cc(NC(=O)c2ccc(C(=O)Nc3cc(C(=O)N(C)C)cc(C4=NCCN4)c3)cc2)cc(C2=NCCN2)c1
inactive: dose: 7.5 mg/kg/injection, schedule: Q01DX015 (ip), vehicle: methylcellulose (MC) 98 % of control | dose: 15.0 mg/kg/injection, schedule: Q01DX015 (ip), vehicle: methylcellulose (MC) 98 % of control and 108 % of control | dose: 60.0 mg/kg/injection, schedule: Q01DX015 (ip), vehicle: methylcellulose (MC) 98 % of control

O=C(Cc1ccccc1)OCCc1ccccc1
inactive: [1] 98 % of control and 105 % of control | [2] 94 % of control and 98 % of control | [3] 97 % of control and 89 % of control | [4] 94 % of control and 100 % of control | [5] 101 % of control and 104 % of control | [6] 96 % of control and 100 % of control

FC(F)(F)c1cccc(C(OCCN2CCCC2)c2ccccc2)c1 (stereo unspecified)
inactive: [7] 92 % of control | [8] 95 % of control | [9] 110 % of control

CC(=O)c1ccc(OC(=O)Nc2ccc(C)cc2)cc1
inactive: [1] 109 % of control | [3] 105 % of control | [5] 88 % of control

O=P(CCCl)(OCCCl)N1CCCCC1 (stereo unspecified)
inactive: dose: 50.0 mg/kg/injection, schedule: Q04DX003 (ip), vehicle: saline 104 % of control | dose: 100.0 mg/kg/injection, schedule: Q01DX009 (ip), vehicle: saline 93 % of control | [10] 104 % of control | dose: 200.0 mg/kg/injection, schedule: Q01DX009 (ip), vehicle: saline 96 % of control | [11] 102 % of control | dose: 400.0 mg/kg/injection, schedule: Q01DX009 (ip), vehicle: saline 88 % of control | [12] 98 % of control

c1ccc(-c2csc(NNc3nc(-c4ccccc4)cs3)n2)cc1
inactive: [2] 95 % of control | [4] 90 % of control | [6] 112 % of control

O=C1CC(N2C(=O)C3C4C=CC(CC4)C3C2=O)C(=O)N1 (stereo unspecified)
inactive: [10] 97 % of control | [11] 97 % of control | [12] 97 % of control

Cc1ccc(NC(=O)Oc2ccc(C(C)(C)C)cc2)cc1NC(=O)Oc1ccc(C(C)(C)C)cc1
inactive: [1] 97 % of control | [3] 105 % of control | [5] 100 % of control

CCOC(=O)/C(N=O)=C(\O)c1ccc2ccccc2n1
inactive: dose: 25.0 mg/kg/injection, schedule: Q01DX009 (ip), vehicle: water 115 % of control | dose: 50.0 mg/kg/injection, schedule: Q01DX009 (ip), vehicle: water 101 % of control | dose: 100.0 mg/kg/injection, schedule: Q01DX009 (ip), vehicle: water 108 % of control | dose: 200.0 mg/kg/injection, schedule: Q01DX009 (ip), vehicle: water 89 % of control | dose: 400.0 mg/kg/injection, schedule: Q01DX009 (ip), vehicle: water 94 % of control

COC(=O)c1cc(OC)c(OC)c(OC)c1
inactive: dose: 100.0 mg/kg/injection, schedule: Q01DX001 (ip), vehicle: saline with Tween-80 100 % of control | dose: 200.0 mg/kg/injection, schedule: Q01DX001 (ip), vehicle: saline with Tween-80 98 % of control | dose: 400.0 mg/kg/injection, schedule: Q01DX001 (ip), vehicle: saline with Tween-80 96 % of control

C1CCC(C2CCC(N3CCCCC3)CC2)CC1 (stereo unspecified)
inactive: dose: 12.5 mg/kg/injection, schedule: Q01DX001 (ip), vehicle: saline 106 % of control | dose: 25.0 mg/kg/injection, schedule: Q01DX001 (ip), vehicle: saline 101 % of control | dose: 50.0 mg/kg/injection, schedule: Q01DX001 (ip), vehicle: saline 101 % of control

Cn1ccnc1Oc1ccc(Cl)cc1
inactive: dose: 12.5 mg/kg/injection, schedule: Q04DX002 (ip), vehicle: Klucel (hydroxypropylcellulose) (HPC) 106 % of control | dose: 50.0 mg/kg/injection, schedule: Q04DX002 (ip), vehicle: Klucel (hydroxypropylcellulose) (HPC) 100 % of control

O=[N+]([O-])c1cc2c(cc1Br)C1C(C3C2C(Cl)(Cl)C(Cl)=C(Cl)C3(Cl)Cl)C(Cl)(Cl)C(Cl)=C(Cl)C1(Cl)Cl (stereo unspecified)
inactive: dose: 100.0 mg/kg/injection, schedule: Q01DX001 (ip), vehicle: saline 95 % of control | dose: 200.0 mg/kg/injection, schedule: Q01DX001 (ip), vehicle: saline 100 % of control | dose: 400.0 mg/kg/injection, schedule: Q01DX001 (ip), vehicle: saline 94 % of control

C[N+](C)(C)CCOC(=O)c1ccc(CBr)c(CBr)c1
inactive: [7] 97 % of control | dose: 6.25 mg/kg/injection, schedule: Q04DX003 (ip), vehicle: saline 96 % of control | [8] 99 % of control | dose: 12.5 mg/kg/injection, schedule: Q04DX003 (ip), vehicle: saline 96 % of control | [9] 104 % of control | dose: 25.0 mg/kg/injection, schedule: Q04DX003 (ip), vehicle: saline 98 % of control

CC1=N/C(=N\c2nc3cc(C)c(C)cc3[nH]2)NC(=O)CC1
inactive: dose: 75.0 mg/kg/injection, schedule: Q01DX001 (ip), vehicle: saline 104 % of control

CCCCCCCCCCCCCCCC(=O)N(CCCCN(C)C)CCCCN(C)C
inactive: dose: 2.0 mg/kg/injection, schedule: Q01DX009 (ip), vehicle: carboxymethylcellulose (CMC) 97 % of control | dose: 4.0 mg/kg/injection, schedule: Q01DX009 (ip), vehicle: carboxymethylcellulose (CMC) 98 % of control | dose: 6.0 mg/kg/injection, schedule: Q01DX009 (ip), vehicle: carboxymethylcellulose (CMC) 97 % of control

CCC(C(=O)NC(=O)NO)c1ccccc1 (stereo unspecified)
inactive: dose: 100.0 mg/kg/injection, schedule: Q01DX Z (ip), vehicle: carboxymethylcellulose (CMC) 94 % of control | dose: 300.0 mg/kg/injection, schedule: Q01DX Z (ip), vehicle: carboxymethylcellulose (CMC) 105 % of control | dose: 400.0 mg/kg/injection, schedule: Q01DX Z (ip), vehicle: carboxymethylcellulose (CMC) 90 % of control

O=C(NCc1ccccc1)C1C2CC3OC(=O)C1C3C2 (stereo unspecified)
inactive: dose: 100.0 mg/kg/injection, schedule: Q04DX003 (ip), vehicle: saline with Tween-80 98 % of control | [10] 123 % of control | dose: 200.0 mg/kg/injection, schedule: Q04DX003 (ip), vehicle: saline with Tween-80 95 % of control | [11] 104 % of control | dose: 400.0 mg/kg/injection, schedule: Q04DX003 (ip), vehicle: saline with Tween-80 95 % of control | [12] 104 % of control

Cc1cc(=O)[nH]c2c(O)cc([N+](=O)[O-])cc12
inactive: dose: 50.0 mg/kg/injection, schedule: Q01DX001 (ip), vehicle: Klucel (hydroxypropylcellulose) (HPC) 111 % of control | dose: 100.0 mg/kg/injection, schedule: Q01DX001 (ip), vehicle: Klucel (hydroxypropylcellulose) (HPC) 100 % of control | dose: 200.0 mg/kg/injection, schedule: Q01DX001 (ip), vehicle: Klucel (hydroxypropylcellulose) (HPC) 97 % of control

O/N=C1\c2ccccc2-c2ccc(Br)cc21
inactive: dose: 100.0 mg/kg/injection, schedule: Q01DX001 (ip), vehicle: carboxymethylcellulose (CMC) 97 % of control | dose: 200.0 mg/kg/injection, schedule: Q01DX001 (ip), vehicle: carboxymethylcellulose (CMC) 117 % of control | dose: 400.0 mg/kg/injection, schedule: Q01DX001 (ip), vehicle: carboxymethylcellulose (CMC) 103 % of control

Cc1ccc(S(=O)(=O)N(CCCc2c(Cc3ccccc3)nc(N)[nH]c2=O)c2ccccc2)cc1
inactive: [1] 88 % of control | [2] 97 % of control and 105 % of control | [3] 93 % of control | [4] 113 % of control and 88 % of control | [5] 100 % of control | [6] 93 % of control
